Assay results published in patent US4264497A, “1,5-Benzothiazepine compounds” (Maruko Seiyaku Co., Ltd., priority 1978, dated 1981).
Counter-ions that a name gives are not always drawn.

Columns and labels:
[1] = system: Aspirin-Stress induced ulcer; assay: Anti-ulcer activity, aspirin-stress induced ulcer, mice; format: in vivo; conditions: s.c., 5 mg/kg
ulcer = assay: Anti-ulcer activity, overall statement; format: in vivo; conditions: in words, vs Glycopyrrolate
Corediastasis = Corediastasis (side effect), intraperitoneal; format: in vivo
mice [2] = assay: Acute toxicity LD50, oral, in mice; conditions: oral
mice [3] = assay: Acute toxicity, overall comparison; format: in vivo; conditions: in words, vs Glycopyrrolate
Stress induced ulcer = assay: Anti-ulcer activity, stress induced ulcer, mice; format: in vivo; conditions: p.o., 5 mg/kg
mice [4] = assay: Acute toxicity LD50, intravenous, in mice; conditions: intravenous
Aspirin induced ulcer = assay: Anti-ulcer activity, aspirin induced ulcer, rats; format: in vivo; conditions: s.c., 5 mg/kg
Gastric secretion = Gastric secretion inhibitory activity, observed in the anti-ulcer test using aspirin; format: in vivo; conditions: observed simultaneously in anti-ulcer test using aspirin (rats, s.c., 5 mg/kg)
[5] = system: Pylorus Ligature induced ulcer; assay: Anti-ulcer activity, pylorus ligature ulcer, rats; format: in vivo; conditions: s.c., 20 mg/kg
[6] = system: Indomethacin induced ulcer; assay: Anti-ulcer activity, indomethacin induced ulcer, rats; format: in vivo; conditions: p.o.
[7] = Acute toxicity LD50, oral, in mice; conditions: mouse, in vivo, po
Desalivation = Desalivation activity (side effect), relative to racemate; format: in vivo; conditions: for Desalivation Activity: relative, racemic mixture = 1, side effect
Stress ulcer = assay: Anti-ulcer activity (Stress), relative to racemate; format: in vivo; conditions: for Anti-ulcer Activity (Stress): relative, racemic mixture = 1
[8] = Acute toxicity LD50, intravenous, in mice; conditions: mouse, in vivo, iv
Anticholinergic activity = Anticholinergic activity (relative to racemate); format: in vivo

Compound | Anti-ulcer Activity, % Inhibitory [1] | corediastasis ED20 (Corediastasis; in vivo, ip) | Anti-ulcer Activity, % Inhibitory (Stress induced ulcer) | Anti-ulcer Activity, % Inhibitory (Aspirin induced ulcer) | Gastric secretion inhibitory activity, % Inhibitory (Gastric secretion) | Anti-ulcer Activity, % Inhibitory [5] | LD50 [7] | Desalivation Activity (Desalivation) | Anti-ulcer Activity (Stress) (Stress ulcer) | LD50 [8] | other results
CN1CCN(C[C@H]2C(=O)Nc3ccccc3S[C@H]2c2ccccc2)CC1 (relative stereo) [Compound A] | 51.8% | 0.31 mg/kg | 91.6% | 100.0% | 90% | 100.0% |  |  |  |  | anti-ulcer activity compared with Glycopyrrolate (ulcer): equal or higher anti-ulcer activity; LD50 (in mice), Oral (mice [2]; mice, test compounds A-C): 650 mg/kg; degree of acute toxicity compared with Glycopyrrolate (mice [3]): approximately the same degree of acute toxicity as Glycopyrrolate; LD50 (in mice), Intravenous (mice [4]; mice, test compounds A-C): 65 mg/kg; Anti-ulcer Activity, % Inhibitory ([6]; A: 5 mg/kg): 99.0%
C[N+]1(C)CCC(OC(=O)C(O)(c2ccccc2)C2CCCC2)C1 (centres unmarked) [Compound B, Glycopyrrolate] | 47.6% | 0.037 mg/kg | 81.9% | 100.0% | 90% | 100.0% |  |  |  |  | Anti-ulcer Activity, % Inhibitory ([6]; B: 20 mg/kg): 88.6%
CN1CCN(C[C@H]2C(=O)Nc3ccccc3S[C@H]2c2ccccc2)CC1 (relative stereo) [Racemic Mixture, (±)-cis-2,3-dihydro-3-[(4-methylpiperazinyl)methyl]-2-phenyl-1,5-benzothiazepin-4(5H)-one] |  |  |  |  |  |  | 650 mg/kg | 1 | 1 | 65 mg/kg | 
CN1[C@@H]2CC[C@H]1CC(OC(=O)C(CO)c1ccccc1)C2 (some centres unmarked) [Compound C, Atropin Sulfate] | 48.0% |  | 82.3% | 79.3% | 70% | 13.0% |  |  |  |  | corediastasis ED20 (Corediastasis; intraperitoneal administration): 0.076 mg/kg
CN1CCN(C[C@H]2C(=O)Nc3ccccc3S[C@H]2c2ccccc2)CC1 (single isomer, unassigned) [(-) Form, cis-(-)-2,3-dihydro-3-[(4-methylpiperazinyl)methyl]-2-phenyl-1,5-benzothiazepin-4(5H)-one] |  |  |  |  |  |  | 870 mg/kg | 0.6 | 4 | 160 mg/kg | anticholinergic activity relative to the corresponding racemate (Anticholinergic activity; (-) form vs racemate): 2 times; Anticholinergic Activity (Anticholinergic activity; relative, racemic mixture = 1): 2; acute toxicity by oral administration, degree relative to racemate (mice [2]; (-) form vs racemate): 3/4; desalivation activity as a side-effect, degree relative to racemate (Desalivation; (-) form vs racemate): about 1/2; anti-ulcer activity relative to the corresponding racemate (Stress ulcer; (-) form vs racemate): 4 times; acute toxicity by intravenous administration, degree relative to racemate (mice [4]; (-) form vs racemate): 2/5
